The record followed here is patent US11186587B2, “Compound as ACC inhibitor and use thereof” (NANJING SANHOME PHARMACEUTICAL CO., LTD., priority 2017, dated 2021).

The structures appear in SMILES notation. Where two headings read alike, the source gives them in different places.

One data set concerns the target ACC2 (Homo sapiens (Human), UniProt O00763). As to the kind of experiment: ACC2 enzyme activity assay (ADP-Glo). As to conditions: ACC2 enzyme 1.1 nM working solution, room temperature. The data set is classed as biochemical. How it is done:
(§1) Compound preparation: the compounds of the present disclosure prepared in the above examples and the control compound were respectively formulated into 10 mM with DMSO for use.
(§2) Preparation of 1× reaction buffer (pH=7.4): HEPES stock solutions (1 M), MgCl2 (1 M), BRIJ-35 (10%), potassium citrate buffer (1 M), BSA (10 mg/mL) and DTT (500 mM) were formulated to enzyme reaction buffer containing HEPES (50 mM), MgCl2 (2 mM), BRIJ-35 (0.01%), potassium citrate buffer (2 mM), BSA (50 Gg/mL) and DTT (2 mM).
The mixture was incubated at room temperature for 15 min.
(§3) Negative control group: menstruum containing 5% DMSO; positive control group: menstruum containing 100 nM ND-630. The average values of each concentration and the positive and negative controls were calculated, and the standard deviation was calculated. […] The inhibition rate data was fitted by nonlinear regression equation to calculate IC50 of each compound. The nonlinear regression equation was Y=lowest value+(highest value−lowest value)/(1+10^((Log IC50−X)×HillSlope)), among which X is logarithm of the compound concentration and Y is inhibition percent (%).
On the technique in general: ADP-Glo turns the ADP formed in a reaction into a luminescent signal.

Data set [1] in a line: Evaluation of compound distribution in rat liver. The data set is classed as in vivo. Conditions: male SD rats, single oral 3 mg/kg, 0.25 h after administration; for Kp at 0.25 h: liver/plasma, read-out: Liver/plasma distribution ratio. The procedure:
An acclimation period of 2-3 days was given before the experiments. The rats were fasted for 8-12 h before administration, supplied with water 2 h after administration and foods 4 h after administration.
6 mg of the test compound (based on free base) was weighed and added to 20 mL of ethanol-PEG400-saline (10:30:60). The mixture was vortexed for 2 min, and sonicated for 3 min, and then used to prepare a solution of test sample solution with a concentration of 0.3 mg/mL for oral administration. 100 μL of the test sample solution was volumed to 10 ng/mL with methanol, and a control sample of the same concentration was prepared. The concentrations of the test sample and control sample were detected by HPLC, and the accuracy was calculated.
SD rats were given a single oral administration of 3 mg/kg of test compound at a dose of 10 mL/kg. The rats were bled in femoral artery and ruptured in neck 0.25 h after administration. The liver and blood samples (anticoagulation with heparin sodium) were collected immediately, and placed on ice.
The homogenate was centrifuged (centrifugation conditions: 8000 rpm/min, 5 min, 4° C.). The supernatant was transferred and subjected to cryopreservation. The supernatant was thawed and centrifuged before injection, and the supernatant was collected and subjected to LC-MS/MS for analyzing the content of the compound in the supernatant sample.
The collected whole blood sample was placed on ice and centrifuged within 30 min (centrifugation conditions: 8000 rpm/min, 5 min, 4° C.). 100 μL of the upper layer of plasma was transferred, and precipitated with 300 μL of methanol. The mixture was shaken and centrifuged, and diluted with mobile phase. The supernatant was collected and subjected to LC-MS/MS for analyzing the content of the compound in the supernatant sample.

The next data set has as its target ACC1 (Homo sapiens (Human), UniProt Q13085). In words: ACC1 enzyme activity assay (ADP-Glo). The data set is classed as biochemical. Conditions: ACC1 enzyme 2 nM working solution, room temperature. How it is done:
as §1, §2
4.5 μL of 2.2×ACC1 enzyme (2 nM) working solution was added to a 384-well plate; and then 0.5 μL of different concentrations of compound were added. The mixture was incubated at room temperature for 15 min.
as §3

Data set [2] relates to Col1A1 gene expression in TGF-β1-induced LX-2 cells. In words: Inhibition of human hepatic stellate cells LX-2 activation in vitro (Col1A1 gene expression, real-time PCR). As to conditions: TGFβ1 10 ng/mL, 24 h drug treatment, compound concentration of the tabulated value not stated (30, 10, 3 μM prepared). The data set is classed as cell-based. How it is done:
The compounds of the present disclosure prepared in the above examples and the control compound were respectively formulated into 60 mM with DMSO for use.
DMSO stock solution of the compounds of the examples of the present disclosure and the control compound were sequentially diluted with culture medium to 30 μM, 10 μM, and 3 μM. TGF-β1 was dissolved to […] with 10 mM citric acid buffer in the kit (PeproTech) according to the instructions, ready for use.
LX-2 cells were inoculated into a 6-well culture plate at a density of 2×10^5 cells/mL after cell passage. Each well contained 2 mL DMEM with 10% FBS. The cells were cultured at 37° C. in a 5% CO2 incubator, which was recorded as Day 1. After 24 h (Day 2), the cell confluence reached 70-80%, the old culture medium was discarded, and the serum-free DMEM was used to treat the cells as low serum starvation. The old culture medium was discarded at Day 3, and the culture medium or the culture medium containing different concentrations of the drug was added for continuing culture. There were control group (serum-free DMEM culture medium), TGFβ1 group, TGFβ1+ compound group. The TGFβ1 working concentration was 10 ng/mL. 24 h after the drug treatment (Day 4), the cell medium was discarded and the cells were washed once with precooled 1×PBS and then subjected to total RNA extraction.
2.3.1 Sample pretreatment: 1 mL of TransZOL Up reagent was added to each well of the 6-well plate, and the well plate was placed horizontally for a while to let the lysis buffer evenly spread on the cell surface and lyse the cells. The cells were blown with a pipette to make the cells completely detached. The lysate was transferred to a 2 mL RNase free centrifuge tube and repeatedly blown and sucked until no significant pieces in the lysate.
The extracted RNA was diluted to a concentration of 0.1 μg-0.5 μg (Total RNA ≤1 μg) based on the same mass. The total RNA in the reverse transcription system of each sample in the experiment was about 500 ng.
Two replicates were set for each sample, and the relative expression of the target gene was calculated by the program in the PCR machine.
The threshold of the Real Time PCR result was automatically set by the Real Time PCR detector system. The relative expression of the Col1A1 gene was calculated as follows. ΔCt (Col1A1 in drug treatment group)=Avg. Ct (Col1A1 in drug treatment group)−Avg. Ct (GAPDH in drug treatment group) ΔCt (Col1A1 in TGF group)=Avg. Ct (Col1A1 in TGF group)−Avg. Ct (GAPDH in TGF group) ΔCt (Col1A1 in Control group)=Avg. Ct (Col1A1 in Control group)−Avg. Ct (GAPDH in Control group) ΔΔCt=Average value of ΔCt (Col1A1 in TGF group/drug treatment group)−ΔCt (Col1A1 in Control group)
Formula for calculating the relative expression of Col1A1 gene: RQ=^2−ΔΔCt
Relative quantification results were obtained by automatically analysis of ABI 7500 real-time quantitative PCR machine.
On the technique in general: In qPCR the cycle at which signal appears reflects the starting amount.

[3] abbreviates: liver, read-out: Concentration in Liver.
[4] abbreviates: plasma, read-out: Concentration in Plasma.

Chain of ACC2 (O00763 whole entry): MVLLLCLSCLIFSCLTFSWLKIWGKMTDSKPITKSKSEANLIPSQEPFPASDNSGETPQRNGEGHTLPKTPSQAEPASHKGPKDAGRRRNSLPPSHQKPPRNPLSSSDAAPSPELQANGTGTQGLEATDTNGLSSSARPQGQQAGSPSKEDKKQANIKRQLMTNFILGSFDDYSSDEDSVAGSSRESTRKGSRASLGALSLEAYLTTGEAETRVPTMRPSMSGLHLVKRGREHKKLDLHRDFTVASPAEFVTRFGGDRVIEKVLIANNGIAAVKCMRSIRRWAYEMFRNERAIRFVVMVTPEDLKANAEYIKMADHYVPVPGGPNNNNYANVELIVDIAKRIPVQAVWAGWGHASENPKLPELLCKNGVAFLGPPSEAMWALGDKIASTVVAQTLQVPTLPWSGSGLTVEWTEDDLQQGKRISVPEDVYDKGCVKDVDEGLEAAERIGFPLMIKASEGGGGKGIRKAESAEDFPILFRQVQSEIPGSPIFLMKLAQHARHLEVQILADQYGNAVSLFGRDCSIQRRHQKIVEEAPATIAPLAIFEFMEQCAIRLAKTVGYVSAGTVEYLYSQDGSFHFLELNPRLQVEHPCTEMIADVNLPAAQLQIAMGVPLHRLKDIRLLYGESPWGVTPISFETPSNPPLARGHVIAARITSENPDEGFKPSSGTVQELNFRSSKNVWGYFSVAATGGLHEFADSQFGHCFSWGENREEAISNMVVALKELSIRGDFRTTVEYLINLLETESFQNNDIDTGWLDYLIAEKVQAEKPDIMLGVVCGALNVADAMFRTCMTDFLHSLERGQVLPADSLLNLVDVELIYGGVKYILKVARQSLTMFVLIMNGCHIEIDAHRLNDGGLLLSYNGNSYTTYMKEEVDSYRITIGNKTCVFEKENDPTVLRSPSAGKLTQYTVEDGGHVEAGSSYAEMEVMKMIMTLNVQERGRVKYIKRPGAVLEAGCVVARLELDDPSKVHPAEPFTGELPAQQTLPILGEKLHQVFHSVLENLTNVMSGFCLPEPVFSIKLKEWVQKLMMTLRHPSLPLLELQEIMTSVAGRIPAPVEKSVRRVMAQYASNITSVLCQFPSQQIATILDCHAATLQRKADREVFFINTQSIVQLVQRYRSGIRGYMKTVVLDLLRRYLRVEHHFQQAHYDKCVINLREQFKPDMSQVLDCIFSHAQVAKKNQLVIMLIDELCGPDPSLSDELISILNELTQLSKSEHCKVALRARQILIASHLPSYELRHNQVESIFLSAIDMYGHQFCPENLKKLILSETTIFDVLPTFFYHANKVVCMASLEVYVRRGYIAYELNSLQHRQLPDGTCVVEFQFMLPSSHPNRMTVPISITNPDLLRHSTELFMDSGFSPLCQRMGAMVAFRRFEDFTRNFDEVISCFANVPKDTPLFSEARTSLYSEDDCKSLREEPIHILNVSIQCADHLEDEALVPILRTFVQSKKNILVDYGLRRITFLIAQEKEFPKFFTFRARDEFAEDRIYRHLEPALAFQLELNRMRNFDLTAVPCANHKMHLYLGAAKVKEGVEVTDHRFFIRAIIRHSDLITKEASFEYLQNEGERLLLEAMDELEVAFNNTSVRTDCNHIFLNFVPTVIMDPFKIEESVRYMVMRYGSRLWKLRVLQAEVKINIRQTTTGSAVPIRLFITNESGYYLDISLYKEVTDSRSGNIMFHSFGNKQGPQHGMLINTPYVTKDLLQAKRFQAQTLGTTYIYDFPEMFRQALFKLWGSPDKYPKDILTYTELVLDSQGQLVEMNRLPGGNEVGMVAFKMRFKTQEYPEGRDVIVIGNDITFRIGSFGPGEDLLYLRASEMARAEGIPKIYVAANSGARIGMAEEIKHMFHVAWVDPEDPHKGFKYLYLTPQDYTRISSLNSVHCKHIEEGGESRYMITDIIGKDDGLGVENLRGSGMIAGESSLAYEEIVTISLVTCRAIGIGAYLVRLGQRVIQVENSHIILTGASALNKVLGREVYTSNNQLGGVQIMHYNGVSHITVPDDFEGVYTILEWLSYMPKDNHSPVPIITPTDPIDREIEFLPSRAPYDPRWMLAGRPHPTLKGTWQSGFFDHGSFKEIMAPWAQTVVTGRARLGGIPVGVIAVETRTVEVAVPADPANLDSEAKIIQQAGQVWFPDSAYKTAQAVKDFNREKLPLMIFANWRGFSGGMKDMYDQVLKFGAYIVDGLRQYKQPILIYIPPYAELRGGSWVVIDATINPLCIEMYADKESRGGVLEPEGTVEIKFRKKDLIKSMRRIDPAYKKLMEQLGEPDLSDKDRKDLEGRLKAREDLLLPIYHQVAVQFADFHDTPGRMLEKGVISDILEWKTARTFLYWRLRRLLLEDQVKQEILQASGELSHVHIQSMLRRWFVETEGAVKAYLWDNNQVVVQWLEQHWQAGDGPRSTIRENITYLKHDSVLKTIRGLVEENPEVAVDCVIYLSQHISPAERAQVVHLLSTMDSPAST

Consider `COc1ccccc1C(Cn1c(=O)n(C2CN(C(C)=O)C2)c(=O)c2c(C)c(-c3ncco3)sc21)OC1CCOCC1` (stereo not drawn) [Example 7], for which the IC50 at ACC2 came to 12.4 nM; against ACC1 it was 2.23 nM. The concentration at 0.25 h in data set [1] (setting [3]) stood at 1460 ng/g; in data set [1] (setting [4]), 19.3 ng/mL. Moreover, the Kp at 0.25 h in data set [1] turned out to be 75.5.

Consider `COc1ccccc1C(Cn1c(=O)n(C2CC(C(=O)O)C2)c(=O)c2c(C)c(-c3ncco3)sc21)OC1CCOCC1` (stereo not drawn) [Example 1, 3-(1-(2-(2-methoxyphenyl)-2-((tetrahydro-2H-pyran-4-yl)oxy)ethyl)-5-methyl-6-(oxazol-2-yl)-2,4-dioxo-1,4-dihydrothieno[2,3-d]pyrimidin-3(2H)-yl)cyclobutane-1-carboxylic Acid], for which the IC50 was 5.13 nM at ACC2 and 0.69 nM against ACC1. In addition, the concentration at 0.25 h stood at 4180 ng/g in data set [1] (setting [3]) and 29.1 ng/mL in data set [1] (setting [4]). In data set [1], the Kp at 0.25 h amounted to 144.

For `COc1ccccc1[C@H](Cn1c(=O)n(-c2ccc(C(=O)O)cc2)c(=O)c2c(C)c(-c3ncco3)sc21)OC1CCOCC1` [Example 24a, (R)-4-(1-(2-(2-methoxyphenyl)-2-((tetrahydro-2H-pyran-4-yl)oxy)ethyl)-5-methyl-6-(oxazol-2-yl)-2,4-dioxo-1,4-dihydrothieno[2,3-d]pyrimidin-3(2H)-yl)benzoic Acid], the “Inhibition rate (%) of relative expression of the Col1A1 gene” value in data set [2] is 24.50%.

Regarding `COc1ccccc1C(Cn1c(=O)n(-c2cccc(C(=O)O)c2)c(=O)c2c(C)c(-c3ncco3)sc21)OC1CCOCC1` (stereo not drawn) [Example 25, 3-(1-(2-(2-methoxyphenyl)-2-((tetrahydro-2H-pyran-4-yl)oxy)ethyl)-5-methyl-6-(oxazol-2-yl)-2,4-dioxo-1,4-dihydrothieno[2,3-d]pyrimidin-3(2H)-yl)benzoic Acid], in data set [2], the “Inhibition rate (%) of relative expression of the Col1A1 gene” value is reported as 62.94%. In addition, the IC50 came out at 7.57 nM against ACC2 and 1.57 nM against ACC1. The concentration at 0.25 h amounted to 3200 ng/g in data set [1] (setting [3]) and 21.2 ng/mL in data set [1] (setting [4]). Besides, the Kp at 0.25 h in data set [1] is 151.

For the compound `COc1ccccc1C(Cn1c(=O)n(-c2ccc(C(=O)O)cc2)c(=O)c2c(C)c(-c3ncco3)sc21)OC1CCOCC1` (stereo not drawn) [Example 24, 4-(1-(2-(2-methoxyphenyl)-2-((tetrahydro-2H-pyran-4-yl)oxy)ethyl)-5-methyl-6-(oxazol-2-yl)-2,4-dioxo-1,4-dihydrothieno[2,3-d]pyrimidin-3(2H)-yl)benzoic Acid], the results for the IC50 against ACC2 and at ACC1 were 5.12 nM and 3.06 nM, respectively. The values for the concentration at 0.25 h in data set [1] (setting [3]) and in data set [1] (setting [4]) were 3170 ng/g and 48.5 ng/mL, respectively. In addition, in data set [1], the Kp at 0.25 h came to 65.3.

As for `COc1ccccc1[C@H](Cn1c(=O)n(-c2cccc(C3(C(=O)O)CC3)c2)c(=O)c2c(C)c(-c3ncco3)sc21)OC1CCOCC1` [Example 56], the “Inhibition rate (%) of relative expression of the Col1A1 gene” value in data set [2] came out at 105.01%.

In the case of `COc1ccccc1[C@H](Cn1c(=O)n([C@H]2C[C@@](C)(C(=O)O)C2)c(=O)c2c(C)c(-c3ncco3)sc21)OC1CCOCC1` [Example 4, (1S,3s)-3-(1-((R)-2-(2-methoxyphenyl)-2-((tetrahydro-2H-pyran-4-yl)oxy)ethyl)-5-methyl-6-(oxazol-2-yl)-2,4-dioxo-1,4-dihydrothieno[2,3-d]pyrimidine-3(2H)-yl)-1-methylcyclobutanecarboxylic Acid], the “Inhibition rate (%) of relative expression of the Col1A1 gene” value in data set [2] amounted to 78.54%. For the same compound, the IC50 against ACC2 was found to be 3.16 nM; against ACC1, 0.68 nM. Also, the figures for the concentration at 0.25 h in data set [1] (setting [3]) and in data set [1] (setting [4]) were 4830 ng/g and 72.8 ng/mL, respectively. The Kp at 0.25 h in data set [1] was 67.1.

As to `CCS(=O)(=O)N1CC(n2c(=O)c3c(C)c(-c4ncco4)sc3n(CC(OC3CCOCC3)c3ccccc3OC)c2=O)C1` (stereo not drawn) [Example 10, 3-(1-(ethylsulfonyl)azetidin-3-yl)-1-(2-(2-methoxyphenyl)-2-((tetrahydro-2H-pyran-4-yl)oxy)ethyl)-5-methyl-6-(oxazol-2-yl)thieno[2,3-d]pyrimidine-2,4(1H, 3H)-dione], the IC50 stood at 6.85 nM on ACC2 and 1.35 nM at ACC1.

As for `COc1ccccc1C(Cn1c(=O)n(C2CNC2)c(=O)c2c(C)c(-c3ncco3)sc21)OC1CCOCC1` (stereo not drawn) [Example 6, 3-(azetidin-3-yl)-1-(2-(2-methoxyphenyl)-2-((tetrahydro-2H-pyran-4-yl)oxy)ethyl)-5-methyl-6-(oxazol-2-yl)thieno[2,3-d]pyrimidine-2,4(1H,3H)-dione], the IC50 at ACC2 was 9.64 nM; against ACC1, 2.81 nM.

What is called IC50 is the concentration at which inhibition is half-maximal. Read a low IC50 as inhibition by little substance.
